According to patent US5081152A, “Azulene derivatives as thromboxane A2 and prostaglandin endoperoxide receptor antagonist” (Kotobuki Seiyaku Co., Ltd., priority 1989, dated 1992):
Structures can show the parent of a compound that is named as a salt.

Target: T1, Thromboxane A2 receptor (Rattus norvegicus, UniProt P34978)
T1 sequence (P34978 1-341): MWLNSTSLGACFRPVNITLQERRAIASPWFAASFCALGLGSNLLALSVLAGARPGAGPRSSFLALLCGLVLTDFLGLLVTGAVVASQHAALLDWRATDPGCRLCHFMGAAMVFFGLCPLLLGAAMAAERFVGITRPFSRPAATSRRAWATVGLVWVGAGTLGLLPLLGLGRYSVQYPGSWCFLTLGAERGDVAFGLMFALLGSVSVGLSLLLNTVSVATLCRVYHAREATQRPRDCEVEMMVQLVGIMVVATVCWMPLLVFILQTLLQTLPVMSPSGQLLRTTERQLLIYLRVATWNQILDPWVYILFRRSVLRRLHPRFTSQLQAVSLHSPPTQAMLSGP
Assay: Thromboxane A2 receptor antagonistic action (inhibitory action of U-46619-induced contractions of rat aortic strips)
Assay type: cell-based
Details: isolated helical strips of rat aorta precontracted with 3×10^-8 M U-46619; read-out: IC50 (the concentrations which inhibited the contraction by 50%)

Row | IC50 | Structure (SMILES)
1 | 52 nM | CC(C)c1ccc2c(C/C=C\CNS(=O)(=O)c3ccccc3)cc(C(=O)O)c-2cc1 [Compound 68, 6-isopropyl-3-[4-(benzenesulfonylamino)-cis-2-butenyl]-azulene-1-carboxylic acid]
2 | 460 nM | CC(C)c1ccc2c(C/C=C/CNS(=O)(=O)c3ccccc3)cc(C(=O)O)c-2cc1 [Compound 69, 6-isopropyl-3-[4-(benzenesulfonylamino)-trans-2-butenyl]-azulene-1-carboxylic acid]
3 | 17 nM | CC(C)c1ccc2c(CCCCNS(=O)(=O)c3ccccc3)cc(S(=O)(=O)O)c-2cc1 [sodium salt]
